# Experiments:
# [1] = target: T1, Short transient receptor potential channel 5 (Homo sapiens, UniProt Q9UL62); experiment: Inhibition of TRPC5 (unknown origin) transfected in HEK293/TREx cells assessed as blocking of inward/outward currents after 20 to 48 hrs in presence of LaCl3 by patch clamp assay; type: cell-based
# T1 sequence (Q9UL62 whole entry): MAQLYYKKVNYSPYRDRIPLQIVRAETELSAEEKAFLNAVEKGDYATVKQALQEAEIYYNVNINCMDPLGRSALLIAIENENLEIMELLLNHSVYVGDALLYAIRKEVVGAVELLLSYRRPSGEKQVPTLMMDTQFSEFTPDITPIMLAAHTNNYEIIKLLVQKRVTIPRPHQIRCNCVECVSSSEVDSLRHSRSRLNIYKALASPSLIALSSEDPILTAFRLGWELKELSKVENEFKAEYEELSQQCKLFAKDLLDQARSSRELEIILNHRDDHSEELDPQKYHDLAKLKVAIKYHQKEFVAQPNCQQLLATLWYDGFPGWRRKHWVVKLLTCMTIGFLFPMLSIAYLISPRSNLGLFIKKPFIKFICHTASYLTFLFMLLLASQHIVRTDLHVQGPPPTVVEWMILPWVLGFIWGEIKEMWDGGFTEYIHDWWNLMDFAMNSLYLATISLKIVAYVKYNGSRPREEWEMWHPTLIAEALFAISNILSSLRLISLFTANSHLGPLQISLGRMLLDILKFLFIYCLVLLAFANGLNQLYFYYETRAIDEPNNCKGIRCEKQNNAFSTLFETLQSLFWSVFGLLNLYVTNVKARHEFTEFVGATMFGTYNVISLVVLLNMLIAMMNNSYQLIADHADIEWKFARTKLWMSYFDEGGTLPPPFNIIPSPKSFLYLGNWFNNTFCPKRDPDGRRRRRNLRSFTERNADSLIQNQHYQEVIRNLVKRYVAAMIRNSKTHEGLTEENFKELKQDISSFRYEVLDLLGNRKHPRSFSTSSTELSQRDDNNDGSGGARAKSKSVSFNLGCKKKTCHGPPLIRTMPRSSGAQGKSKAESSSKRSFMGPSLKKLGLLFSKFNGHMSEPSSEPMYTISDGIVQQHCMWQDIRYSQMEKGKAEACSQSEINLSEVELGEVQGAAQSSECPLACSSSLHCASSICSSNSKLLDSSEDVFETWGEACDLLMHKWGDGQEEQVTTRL
# [2] = target: T1, Short transient receptor potential channel 5; experiment: Inhibition of TRPC5 (unknown origin) transfected in HEK293/TREx cells assessed as reduction of rise in intracellular Ca2+ concentration after 60 to 80 mins by Fluo4 cell-based fluorescence assay
SMILES,IC50 [1],IC50 [2]
Cn1c(=O)n(CCCO)c(=O)c2c(Cc3ccccc3)c(-c3cccc(OC(F)(F)F)c3)ccc21,5.3 nM,
CCCCOc1ccc2c(c1Cc1ccc(F)cc1)c(=O)n(CCCO)c(=O)n2C,< 1 nM,< 1 nM
COc1ccc2c(c1Cc1ccccc1)c(=O)n(CCCO)c(=O)n2C,23.3 nM,
CC(C)Oc1ccc2c(c1Cc1ccc(F)cc1)c(=O)n(CCCO)c(=O)n2C,9 nM,2.64 nM
Cn1c(=O)n(CCCO)c(=O)c2c(Cc3ccccc3)c(Oc3cccc(OC(F)(F)F)c3)ccc21,< 1 nM,2.69 nM
COc1ccc2c(c1Cc1ccc(F)cc1)c(=O)n(CCCO)c(=O)n2C,8.37 nM,> 100 nM

# Source: ChEMBL document CHEMBL4425118, “Potential Treatment for Neuropsychiatry Disorders with TRPC5 Modulators” (ACS Med Chem Lett, 2016)
